Values of other authors in US9655910B2, “Compositions and methods for treating addiction” (BODYBIO INC., priority 2014, dated 2017).

How the values were obtained:
CB1 cannabinoid receptor = CB1 cannabinoid receptor (Rattus norvegicus, UniProt P20272)
CB2 receptor = CB2 receptor (Homo sapiens, UniProt P34972); settings: compared with CB1
CB2 receptor, sequence (P34972 whole entry): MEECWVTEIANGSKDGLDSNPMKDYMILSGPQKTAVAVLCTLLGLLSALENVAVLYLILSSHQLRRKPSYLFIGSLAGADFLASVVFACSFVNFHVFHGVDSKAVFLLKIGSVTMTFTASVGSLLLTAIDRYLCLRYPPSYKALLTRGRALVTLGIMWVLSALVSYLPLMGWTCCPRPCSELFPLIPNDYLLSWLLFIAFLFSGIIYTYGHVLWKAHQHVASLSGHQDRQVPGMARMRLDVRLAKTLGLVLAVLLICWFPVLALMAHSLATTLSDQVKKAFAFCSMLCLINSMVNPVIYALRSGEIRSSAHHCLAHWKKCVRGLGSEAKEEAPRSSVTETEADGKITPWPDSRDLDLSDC

CB1 cannabinoid receptor, sequence (P20272 whole entry): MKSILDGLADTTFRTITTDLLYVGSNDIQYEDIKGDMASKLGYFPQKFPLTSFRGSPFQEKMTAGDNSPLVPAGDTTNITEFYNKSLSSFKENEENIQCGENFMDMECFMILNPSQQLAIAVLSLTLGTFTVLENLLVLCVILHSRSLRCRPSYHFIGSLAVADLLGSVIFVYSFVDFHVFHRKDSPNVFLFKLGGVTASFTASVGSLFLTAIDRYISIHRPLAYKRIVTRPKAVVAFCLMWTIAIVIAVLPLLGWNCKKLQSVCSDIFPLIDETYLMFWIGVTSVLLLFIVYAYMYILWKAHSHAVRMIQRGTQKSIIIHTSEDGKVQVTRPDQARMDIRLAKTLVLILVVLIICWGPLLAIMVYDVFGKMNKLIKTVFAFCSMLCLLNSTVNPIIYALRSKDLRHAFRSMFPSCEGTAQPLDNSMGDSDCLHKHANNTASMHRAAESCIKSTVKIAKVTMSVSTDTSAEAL

Compound: CCCCCC=CCC=CCC=CCC=CCCCCOC(CO)CO [Noladin ether, 2-arachidonyl glyceryl ether]
- Ki (CB1 cannabinoid receptor): 21.2 nM
- effects caused in mice (mice): sedation, hypothermia, intestinal immobility, and mild antinociception
- binding to the CB2 receptor (CB2 receptor): only weakly
